ChEMBL document CHEMBL1201862, “PubChem BioAssay data set” (2004)
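How tested: cells in 96-well plates exposed to compound for 48 hours at five concentrations. GI50 is the concentration that inhibits growth by half.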 Active and inactive are the calls of the source. Rule as the data show it: active = GI50 up to about 1.1 µM and inactive = higher.

Key:
Experiment in all cases: NCI anticancer screen, dose series, 48 h
786-0 = system: 786-0
DU-145 = system: DU-145
SN12C = system: SN12C
MDA-MB-231 = system: MDA-MB-231
OVCAR-5 = system: OVCAR-5
SK-MEL-5 = system: SK-MEL-5
NCI/ADR-RES = system: NCI/ADR-RES
EKVX = system: EKVX
CAKI-1 = system: CAKI-1
IGROV-1 = system: IGROV-1
SNB-75 = system: SNB-75
SK-MEL-28 = system: SK-MEL-28
HCT-15 = system: HCT-15
COLO 205 = system: COLO 205
A498 = system: A498
NCI-H226 = system: NCI-H226
SF-268 = system: SF-268
A549 = system: A549
K562 = system: K562
M19-MEL = system: M19-MEL

| Structure (SMILES) | GI50 (786-0) | GI50 (DU-145) | GI50 (SN12C) | GI50 (MDA-MB-231) | GI50 (OVCAR-5) | GI50 (SK-MEL-5) | GI50 (NCI/ADR-RES) | GI50 (EKVX) | GI50 (CAKI-1) | GI50 (IGROV-1) | GI50 (SNB-75) | GI50 (SK-MEL-28) | GI50 (HCT-15) | GI50 (COLO 205) | GI50 (A498) | GI50 (NCI-H226) | GI50 (SF-268) | GI50 (A549) | GI50 (K562) | GI50 (M19-MEL) |
| --- | --- | --- | --- | --- | --- | --- | --- | --- | --- | --- | --- | --- | --- | --- | --- | --- | --- | --- | --- | --- |
| Nc1ccn(C2OC(COC(=O)C34CC5CC(CC(C5)C3)C4)C(O)C2O)c(=O)n1 (centres undefined) | > 100 µM (inactive) | > 100 µM (inactive) | > 100 µM (inactive) | > 100 µM (inactive) | > 100 µM (inactive) | > 100 µM (inactive) | > 100 µM (inactive) | > 100 µM (inactive) | > 100 µM (inactive) | > 100 µM (inactive) | > 100 µM (inactive) | 52.4 µM (inactive) | > 70.6 µM | 59 µM (inactive) | > 45.5 µM (inactive) | > 100 µM (inactive) | > 50.5 µM (inactive) | 0.773 µM (active) | 43.4 µM (inactive) | > 100 µM (inactive) |
| COC1=CC(=O)NCCN1 | > 100 µM (inactive) |  | > 100 µM (inactive) |  | > 100 µM (inactive) | > 100 µM (inactive) |  | > 100 µM (inactive) | > 100 µM (inactive) | > 100 µM (inactive) | > 100 µM (inactive) | > 100 µM (inactive) | 52.2 µM | 41.8 µM (inactive) | > 100 µM (inactive) | > 100 µM (inactive) | > 100 µM (inactive) | > 100 µM (inactive) | > 100 µM (inactive) | > 100 µM (inactive) |
| Cc1c(C)c2ccc3oc4ccccc4c3c2oc1=O | > 100 µM (inactive) |  | > 100 µM (inactive) |  | > 100 µM (inactive) | > 100 µM (inactive) |  | > 100 µM (inactive) | > 100 µM (inactive) | > 100 µM (inactive) | 57.8 µM (inactive) | > 100 µM (inactive) | > 100 µM | > 100 µM (inactive) | > 100 µM (inactive) | > 100 µM (inactive) | > 100 µM (inactive) | > 100 µM (inactive) | > 100 µM (inactive) | > 100 µM (inactive) |
| O=S1(=O)CCN(c2ccccc2CC(c2c[nH]c3ccccc23)c2c[nH]c3ccccc23)CC1 | 6.03 µM (inactive) | 7.43 µM (inactive) | 5.02 µM (inactive) | 6.92 µM (inactive) | 14.1 µM (inactive) | 6.61 µM (inactive) | 6.62 µM (inactive) | 8.49 µM (inactive) | 9.16 µM (inactive) | 6.93 µM (inactive) | 5.02 µM (inactive) | 8.73 µM (inactive) | 4.94 µM | 3.03 µM (inactive) | 10 µM (inactive) | 12.7 µM (inactive) | 5.19 µM (inactive) | 8.41 µM (inactive) | 3.08 µM (inactive) | 5.74 µM (inactive) |
